From US20180213779A1, “PESTICIDALLY ACTIVE HETEROCYCLIC DERIVATIVES WITH SULPHUR CONTAINING SUBSTITUENTS” (SYNGENTA PARTICIPATIONS AG, priority 2015, published 2018)

Key:
Format in all cases: in vivo
[1] = system: Diabrotica balteata (Corn Root Worm); assay: Example B6: Activity against Diabrotica balteata (sprayed maize sprouts); details: 96 h, application rate of 200 ppm, L2 larvae, 4 days after infestation, read-out: effect in at least one of the two categories (mortality or growth inhibition)
Experimental: Example B6: Activity Against Diabrotica Balteata (Corn Root Worm)
Maize sprouts placed onto an agar layer in 24-well microtiter plates were treated with aqueous test solutions prepared from 10′000 ppm DMSO stock solutions by spraying. After drying, the plates were infested with L2 larvae (6 to 10 per well). The samples were assessed for mortality and growth inhibition in comparison to untreated samples 4 days after infestation.

[2] = system: Plutella xylostella (Diamond Back Moth); assay: Example B11: Activity against Plutella xylostella (artificial diet, 24-well, L2 larvae); details: 120 h, application rate of 200 ppm, 5 days after infestation, read-out: effect in at least one of the two categories (mortality or growth inhibition)
Experimental: Example B11: Activity Against Plutella xylostella (Diamond Back Moth)
24-well microtiter plates with artificial diet were treated with aqueous test solutions prepared from 10′000 ppm DMSO stock solutions by pipetting. After drying, the plates were infested with L2 larvae (10 to 15 per well). The samples were assessed for mortality and growth inhibition in comparison to untreated samples 5 days after infestation.

[3] = system: Plutella xylostella (Diamond-Back Moth); assay: Example B3: Plutella xylostella larvicide, feeding/contact activity, preventative (artificial diet, 96-well); details: 216 h, application rate of 500 ppm, mortality assessed 9 days after treatment
Experimental: Example B3: Plutella xylostella (Diamond-Back Moth) larvicide, feeding/contact activity, preventative Artificial diet was dispensed into a 96-well microtiter plate and treated with aqueous test solutions prepared from 10′000 ppm DMSO stock solutions. Eggs were suspended above the treated diet and first instar larvae hatched onto the diet. Mortality was assessed 9 days after treatment.

[4] = system: Spodoptera littoralis (Egyptian Cotton Leaf Worm); assay: Example B4: Activity against Spodoptera littoralis (sprayed cotton leaf discs); details: foliar, 72 h, application rate of 200 ppm, L1 larvae, 3 days after infestation
Experimental: Example B4: Activity Against Spodoptera littoralis (Egyptian Cotton Leaf Worm)
Cotton leaf discs were placed on agar in 24-well microtiter plates and sprayed with aqueous test solutions prepared from 10′000 ppm DMSO stock solutions. After drying the leaf discs were infested with five L1 larvae. The samples were assessed for mortality, anti-feedant effect, and growth inhibition in comparison to untreated samples 3 days after infestation. Control of Spodoptera littoralis by a test sample is given when at least one of the categories mortality, anti-feedant effect, and growth inhibition is higher than the untreated sample.

[5] = system: Tetranychus urticae (Two-Spotted Spider Mite); assay: Example B12: Activity against Tetranychus urticae (sprayed bean leaf discs); details: foliar, 192 h, application rate of 200 ppm, mixed population (mobile stages), 8 days after infestation
Experimental: Example B12: Activity Against Tetranychus urticae (Two-Spotted Spider Mite)
Bean leaf discs on agar in 24-well microtiter plates were sprayed with aqueous test solutions prepared from 10′000 ppm DMSO stock solutions. After drying the leaf discs were infested with a mite population of mixed ages. The samples were assessed for mortality on mixed population (mobile stages) 8 days after infestation.

[6] = system: Myzus persicae (Green Peach Aphid); assay: Example B8: Activity against Myzus persicae (sprayed sunflower leaf discs); details: foliar, 144 h, application rate of 200 ppm, mixed ages, 6 days after infestation
Experimental: Example B8: Activity Against Myzus persicae (Green Peach Aphid)
Sunflower leaf discs were placed onto agar in a 24-well microtiter plate and sprayed with aqueous test solutions prepared from 10′000 ppm DMSO stock solutions. After drying, the leaf discs were infested with an aphid population of mixed ages. The samples were assessed for mortality 6 days after infestation.

[7] = system: Myzus persicae (Green Peach Aphid); assay: Example B10: Activity against Myzus persicae (sucrose solution, Parafilm feeding); details: 120 h, test rate of 12 ppm, 5 days after infestation
Excerpt: Example B10: Activity Against Myzus persicae (Green Peach Aphid)
Test compounds prepared from 10′000 ppm DMSO stock solutions were applied by pipette into 24-well microtiter plates and mixed with sucrose solution. The plates were closed with a stretched Parafilm. A plastic stencil with 24 holes was placed onto the plate and infested pea seedlings were placed directly on the Parafilm. The infested plate was closed with a gel blotting paper and another plastic stencil and then turned upside down. The samples were assessed for mortality 5 days after infestation.

Row | Compound | effect (mortality or growth inhibition) at 200 ppm [1] | percent effect (mortality or growth inhibition) at 200 ppm [2] | pest or weed control at 500 ppm [3] | percent control (mortality, anti-feedant effect or growth inhibition) at 200 ppm [4] | mortality at 200 ppm [5] | mortality at 200 ppm [6] | mortality at 12 ppm [7]
1 | CCS(=O)(=O)c1cc(Br)cnc1-c1cn(-c2cccc(C(F)(F)F)c2)nn1 [Compound P12, 5-bromo-3-ethylsulfonyl-2-[1-[3-(trifluoromethyl)phenyl]triazol-4-yl]pyridine] | ≥ 80% | ≥ 80% | ≥ 70% | ≥ 80% | ≥ 80% | – | –
2 | CCSc1cccnc1-c1cn(-c2cncc(C(F)(F)F)c2)nn1 [Compound P19] | ≥ 80% | – | ≥ 70% | – | – | ≥ 80% | ≥ 80%
